# The supplement of paper PMC10307832
# Experiments:
# Assay in all cases: relative viability (nuclei count vs DMSO), 5 days (fraction); higher = more cells survive
# Wnt-C59 + Trametinib = compound: CC1=NC=CC(=C1)C2=CC=C(C=C2)CC(=O)NC3=CC=C(C=C3)C4=CN=CC=C4 [Wnt-C59] + CC(=O)Nc1cccc(-n2c(=O)n(C3CC3)c(=O)c3c(Nc4ccc(I)cc4F)n(C)c(=O)c(C)c32)c1 [Trametinib] (partner 0.02 µM)
# Outline: (§1)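 Relative viability was taken as the ratio of nuclei in treated wells to nuclei in vehicle wells. Lung cancer cell lines in 1536-well plates received compounds by pin tool one day after seeding, either one drug alone or a fixed anchor-drug dose plus five library-drug doses (not always all listed) in √10 steps. Nuclei were counted on 4× images after 5 days of treatment, and values are medians of duplicate plates.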
# Wnt-C59 + AZD7762 = compound: CC1=NC=CC(=C1)C2=CC=C(C=C2)CC(=O)NC3=CC=C(C=C3)C4=CN=CC=C4 [Wnt-C59] + NC(=O)Nc1cc(-c2cccc(F)c2)sc1C(=O)N[C@H]1CCCNC1 [AZD7762] (partner 0.2 µM)
# Outline: as §1
# Lapatinib + Palbociclib = compound: CS(=O)(=O)CCNCc1ccc(-c2ccc3ncnc(Nc4ccc(OCc5cccc(F)c5)c(Cl)c4)c3c2)o1 [Lapatinib] + CC(=O)c1c(C)c2cnc(Nc3ccc(N4CCNCC4)cn3)nc2n(C2CCCC2)c1=O [Palbociclib] (partner 0.5 µM)
# Outline: as §1
# Lapatinib + Linsitinib = compound: CS(=O)(=O)CCNCc1ccc(-c2ccc3ncnc(Nc4ccc(OCc5cccc(F)c5)c(Cl)c4)c3c2)o1 [Lapatinib] + C[C@]1(O)C[C@@H](c2nc(-c3ccc4ccc(-c5ccccc5)nc4c3)c3c(N)nccn32)C1 [Linsitinib] (partner 1 µM)
# Outline: as §1
Cell Line,relative viability (Wnt-C59 + Trametinib; first compound 0.001 µM),relative viability (Wnt-C59 + Trametinib; first compound 0.01 µM),relative viability (Wnt-C59 + Trametinib; first compound 0.03162 µM),relative viability (Wnt-C59 + Trametinib; first compound 0.1 µM),relative viability (Wnt-C59 + AZD7762; first compound 0.001 µM),relative viability (Wnt-C59 + AZD7762; first compound 0.01 µM),relative viability (Wnt-C59 + AZD7762; first compound 0.03162 µM),relative viability (Wnt-C59 + AZD7762; first compound 0.1 µM),relative viability (Lapatinib + Palbociclib; first compound 0.06325 µM),relative viability (Lapatinib + Palbociclib; first compound 0.2 µM),relative viability (Lapatinib + Palbociclib; first compound 0.6325 µM),relative viability (Lapatinib + Palbociclib; first compound 2 µM),relative viability (Lapatinib + Linsitinib; first compound 0.06325 µM),relative viability (Lapatinib + Linsitinib; first compound 0.2 µM),relative viability (Lapatinib + Linsitinib; first compound 0.6325 µM),relative viability (Lapatinib + Linsitinib; first compound 2 µM),relative viability (Lapatinib + Linsitinib; first compound 0.02 µM),relative viability (Lapatinib + Palbociclib; first compound 0.02 µM)
NCI-H1915,0.302,0.304,0.346,0.31,0.761,0.69,0.708,0.69,0.517,0.489,0.496,0.522,1.09,1.08,1.02,1.1,–,–
Calu-6,–,–,–,–,–,–,–,–,–,–,–,–,0.953,0.947,0.954,0.848,0.891,–
LU99A,0.583,0.474,0.569,0.506,0.374,0.491,0.338,0.313,0.299,0.385,0.424,0.39,0.511,0.581,0.565,0.561,0.534,0.449
LOU-NH91,0.817,0.788,0.802,0.792,0.765,0.67,0.778,0.761,0.525,0.508,0.494,0.57,0.761,0.753,0.637,0.464,0.861,0.542
NCI-H1993,0.634,0.486,0.507,0.465,0.965,0.665,1.05,0.769,–,0.471,0.588,0.433,–,0.816,0.752,0.639,0.743,0.687
NCI-H1703,–,–,–,–,0.158,0.107,0.135,0.129,–,–,–,–,0.642,0.888,0.512,0.662,0.695,–
NCI-H2405,0.655,0.587,0.505,0.574,0.759,0.75,0.759,0.8,0.452,–,0.505,0.518,0.805,0.918,0.973,0.768,–,–
NCI-H661,0.567,0.559,0.593,0.631,–,–,–,–,0.382,0.325,0.356,0.3,0.485,0.436,0.454,0.266,0.616,0.374
COR-L 105,0.444,0.433,0.448,0.488,–,–,–,–,0.387,0.352,0.407,0.338,0.772,0.954,0.703,0.272,0.796,0.418
NCI-H1437,0.51,0.562,0.481,0.579,1.14,1.16,1.18,1.08,0.297,0.305,0.322,0.294,0.968,1.05,0.864,0.875,0.898,0.281
NCI-H1563,–,–,–,–,–,–,–,–,–,–,–,–,1.13,1.03,1.2,1.12,1.12,–
NCI-H2009,0.267,0.315,0.267,0.294,–,–,–,–,0.213,0.177,0.253,0.233,1.22,1.22,1.18,1.09,1.22,0.192
NCI-H23,0.396,0.346,0.385,0.432,0.244,0.257,0.243,0.296,–,0.488,0.512,0.457,–,0.508,0.588,0.462,–,–
201T,0.698,0.747,0.733,0.698,0.713,0.697,0.598,0.606,0.309,0.339,0.338,0.342,0.92,1,1.04,0.909,0.96,0.358
NCI-H520,0.709,0.743,0.598,0.643,–,–,–,–,0.2,0.231,0.291,0.238,0.799,1.04,0.992,1.16,0.9,0.221
A-427,0.749,0.746,0.81,0.876,0.801,0.815,0.831,0.688,0.518,0.526,0.524,0.483,1.05,1.11,1.17,1.14,–,0.544
NCI-H1975,0.414,0.38,0.33,0.349,0.72,0.653,0.724,0.773,0.492,0.518,0.575,0.311,0.927,0.954,0.853,0.694,0.843,0.285
NCI-H647,0.503,0.404,0.528,0.47,0.554,0.389,0.502,0.472,0.393,0.434,0.292,0.307,1.17,1.37,1.1,0.995,1.21,0.393
NCI-H3122,0.18,0.243,0.207,0.218,1.03,0.949,1.05,0.973,0.176,0.17,0.198,0.236,0.954,0.996,1.04,0.999,0.996,0.185
A549,–,–,–,–,–,–,–,–,–,–,–,–,0.433,0.555,0.473,0.425,–,–

Cell Line,relative viability (Wnt-C59 + Trametinib; first compound 0.001 µM),relative viability (Wnt-C59 + Trametinib; first compound 0.01 µM),relative viability (Wnt-C59 + Trametinib; first compound 0.03162 µM),relative viability (Wnt-C59 + Trametinib; first compound 0.1 µM),relative viability (Wnt-C59 + AZD7762; first compound 0.001 µM),relative viability (Wnt-C59 + AZD7762; first compound 0.01 µM),relative viability (Wnt-C59 + AZD7762; first compound 0.03162 µM),relative viability (Wnt-C59 + AZD7762; first compound 0.1 µM),relative viability (Lapatinib + Palbociclib; first compound 0.06325 µM),relative viability (Lapatinib + Palbociclib; first compound 0.2 µM),relative viability (Lapatinib + Palbociclib; first compound 0.6325 µM),relative viability (Lapatinib + Palbociclib; first compound 2 µM),relative viability (Lapatinib + Linsitinib; first compound 0.06325 µM),relative viability (Lapatinib + Linsitinib; first compound 0.2 µM),relative viability (Lapatinib + Linsitinib; first compound 0.6325 µM),relative viability (Lapatinib + Linsitinib; first compound 2 µM),relative viability (Lapatinib + Linsitinib; first compound 0.02 µM),relative viability (Lapatinib + Palbociclib; first compound 0.02 µM)
NCI-H1299,–,–,–,–,–,–,–,–,–,–,–,–,0.923,0.98,1,1.05,0.973,–
HCC-44,1.11,0.969,0.996,1.09,1.07,0.952,0.97,1.01,1.01,0.976,1.05,0.823,0.648,0.628,0.627,0.493,0.709,0.995
NCI-H838,0.538,0.55,0.491,0.482,0.958,0.942,0.966,0.883,0.193,0.201,0.238,0.178,0.913,1.03,1.04,0.874,1.08,0.225
NCI-H2342,0.786,0.757,0.91,0.797,0.525,0.498,0.495,0.457,0.491,0.501,0.553,0.484,–,–,–,–,–,0.504
NCI-H1650,0.642,0.716,0.684,0.774,–,–,–,–,0.314,0.379,0.3,0.299,–,–,–,–,–,0.315
NCI-H522,0.786,0.741,0.829,0.752,0.857,0.863,0.877,0.637,0.749,0.954,1.02,0.777,–,–,–,–,–,–
SW 900,0.809,0.745,0.793,0.6,0.602,0.615,0.555,0.562,0.514,0.554,0.586,0.43,–,–,–,–,–,–
SK-LU-1,0.561,0.506,0.533,0.422,–,–,–,–,0.394,0.455,0.44,0.392,0.783,1.19,1.01,1.24,–,0.36
IA-LM,–,–,–,–,–,–,–,–,–,–,–,–,0.605,0.583,0.541,0.792,0.655,–
NCI-H2228,0.549,0.574,0.477,0.499,–,–,–,–,0.606,0.744,0.739,0.54,0.51,0.721,0.881,0.891,0.662,0.395
ChaGo-K-1,0.845,0.875,0.96,0.841,0.893,0.844,0.955,0.901,0.9,0.939,0.909,0.912,–,–,–,–,–,0.868
NCI-H2170,0.923,0.864,1.03,0.974,0.762,0.688,0.992,0.836,0.313,0.271,0.277,0.136,–,–,–,–,–,0.376
NCI-H1648,0.564,0.45,0.63,0.491,0.565,0.797,0.53,0.622,0.222,0.294,0.285,0.252,–,–,–,–,–,–
SK-MES-1,0.61,0.556,0.511,0.518,–,–,–,–,0.384,0.326,0.328,0.299,1.01,0.97,0.69,0.663,1.12,0.338
COR-L23,0.626,0.648,0.684,0.56,–,–,–,–,0.298,0.342,0.297,0.279,0.87,0.986,0.945,0.875,0.955,0.248
NCI-H2023,0.608,0.579,0.679,0.543,–,–,–,–,0.266,0.324,0.242,0.264,0.519,0.474,0.512,0.366,0.594,–
ABC-1,–,–,–,–,0.89,0.686,0.488,0.518,0.487,–,0.533,0.787,0.813,0.871,0.773,0.504,–,0.71
EBC-1,–,–,–,–,–,–,–,–,–,–,–,–,0.883,0.888,0.938,0.886,0.904,–
NCI-H596,0.734,0.704,0.879,0.876,1.06,1.03,0.987,1.08,–,–,–,–,1.02,1.09,1.19,0.839,1.11,–
SW 1573,0.515,0.551,0.582,0.515,–,–,–,–,0.384,0.411,0.372,0.359,0.82,0.76,0.784,0.794,0.843,–
